For experiment [1], the system named is EGFR. The note with it: ref [30]; cited from earlier work. The source says: The binding of EGF through the three interaction sites of EGFR shifts the equilibrium between the two distinct EGFR conformations to the untethered one, enabling the dimerization arm in domain II to interact with an identical dimerization arm of another receptor to form the dimer, [14].

The test system of experiment [2] is EGFR. The note with it: ref [11], [12], cited from earlier work. The source says: (§1) Our group has previously described that the Potato Carboxypeptidase Inhibitor (PCI) is an antagonist of human EGF. PCI is a 39-residue protein folded into a 27-residue globular core stabilized by three disulfide bonds that adopts the same conformation as EGF, the T-Knot scaffold. This similar structure probably accounts for the antagonistic activity.

The subject of a further experiment is human cancer cell lines. Particulars: several human cancer cell lines; ref [11], [12]; cited from earlier work.
From the text: as §1

Experiment [3] has as its system EGFR. The note with it: ref [39], [40]; cited from earlier work. The source says: It is known that activated EGFR traffics from the plasma membrane to the cytoplasm through endocytic vesicles. Then, internalized EGFR can be eventually degraded in lysosomes, or recycled to the plasma membrane. Moreover, several reports have identified additional intracellular destinations for the internalized receptor, including ...

The next experiment deals with MCF-7 cells. Description: Cell proliferation (MTT), MCF-7. In kind it is cell-based, human. Particulars: MCF-7, 20 and 150 nM, 72 h (3 days), medium without FBS, vs untreated. The protocol:
(§2) The optimal cell seeding concentration was previously established for both cell types, as described in the supporting information (Fig S1), in order to maintain the cells in an exponential growth phase along the experiment. The cells were allowed to attach and grow for 72 h in culture medium, then the cells were washed and medium without FBS was added to the cells for 24 h. […] The treatments were removed, and the cells were washed with PBS and incubated for 3 h with 100 μl of fresh culture medium together with 10 μl of MTT (3-(4,5-dimethylthiazol-2-yl)-2,5-diphenyltetrazolium bromide) (Sigma-Aldrich, St. Louis, MO, USA). Medium was discarded and dimethyl sulfoxide (DMSO) (Sigma-Aldrich, St. Louis, MO, USA) was added to each well to dissolve the purple formazan crystals. Plates were agitated at room temperature for 10 min and the absorbance of each well was determined with an absorbance microplate reader (ELx800, BioTek, Winooski, VT, USA) at a wavelength of 570 nm. Three replicates were used for each treatment. The cell viability was determined as a percentage of the untreated control cells, by dividing the mean absorbance of each treatment by the mean absorbance of the untreated cells.

In a further experiment the test system is Caco-2 cells. Description: Cell proliferation (MTT), Caco-2. In kind it is cell-based, human. Particulars: Caco-2, any concentration tested (10, 20 and 150 nM), 96 h (4 days), medium without FBS, vs untreated. As for the experimental part: as §2

For the compound `Cc1ccc(C(=O)Nc2ccc(S(=O)(=O)O)c3cc(S(=O)(=O)O)cc(S(=O)(=O)O)c23)cc1NC(=O)c1cccc(NC(=O)Nc2cccc(C(=O)Nc3cc(C(=O)Nc4ccc(S(=O)(=O)O)c5cc(S(=O)(=O)O)cc(S(=O)(=O)O)c45)ccc3C)c2)c1` [suramin], the “interference with hEGF-EGFR interaction” value in the experiment on EGFR [1] is “prevents hEGF from interacting with EGFR at site 3”.

As to “Potato Carboxypeptidase Inhibitor (QQHADPICNKPCKTHDDCSGAWFCQACWNSARTCGPYVG; UniProt P01075 1-39, looked up) [PCI, 39-residue protein folded into a 27-residue globular core stabilized by three disulfide bonds]”, in the experiment on EGFR [2] (earlier work), the “affinity for EGFR (in words)” value is “very low”. Also, in the experiment with EGFR [2], the EGFR activation result is recorded as “inhibited EGFR activation”, the EGFR down regulation result is on record as “induced the down regulation of the receptor”, the “competition with EGF for binding to EGFR” value is “competed with EGF for binding to EGFR” and the “effective concentration compared to EGFt/hEGF (in words)” value was “one order of magnitude higher (μM)”. Also, the “anti-proliferative activity in vitro” value with human cancer cell lines is reported as “showed anti-proliferative activity in vitro in several human cancer cell lines”.

Take TGF-α: EGFR native ligand: in the experiment with EGFR [3], the “stability of binding to EGFR at pH of endosomes” value is reported as “rapidly dissociates from the receptor when exposed to the low pH of endosomes”.

As to human Epidermal Growth Factor [hEGF], the “cell proliferation (in words)” value in the experiment on MCF-7 cells is “proliferative effect”; in the experiment with Caco-2 cells, “moderated but significant proliferative effect”. Also, in the experiment with EGFR [3], the “stability of binding to EGFR at pH of endosomes” value is given as “relatively more stable at the pH of endosomes”.

(Values after PMC3728333, “Development of an Epidermal Growth Factor Derivative with EGFR Blocking Activity” (PLoS ONE, 2013).)
